Assay results from patent publication US20240358727A1, “MICROSCALE THERMOPHORESIS TO EVALUATE CHANNEL LIPID INTERACTIONS AND METHODS OF TREATING NAV CHANNELS RELATED DISEASES” (Northeastern University, priority 2023, published 2024).
Entries after “also recorded” stand apart in the source; their conditions may differ.

Experiments:
[1] = biological target: T1, Nav1.5 channel currents (INa, ILATE) in M3q iPS-CMs (Homo sapiens, UniProt Q14524); test: Whole-cell patch-clamp of INa and ILATE in M3q-DREADD iPS-CMs activated with CNO; assay type: cell-based; conditions: for effect on CNO-evoked increase in ILATE / effect on CNO-evoked leftwards shifts in V½ACT and V½SSI: 200 μM diC8-PIP2 in pipette; for effect on CNO (M3q activation) effects on V½ACT, V½SSI and ILATE: staurosporine 1 μM 1-hour preincubation, BAPTA 10 mM in pipette, U73122 5 μM, diC8-PIP2 200 μM in pipette
T1 construct: host or cells: human iCell^2 iPS cardiomyocytes (transfected with M3q DREADD in A5; endogenous AT1 receptor in A7)
T1 sequence (Q14524 whole entry): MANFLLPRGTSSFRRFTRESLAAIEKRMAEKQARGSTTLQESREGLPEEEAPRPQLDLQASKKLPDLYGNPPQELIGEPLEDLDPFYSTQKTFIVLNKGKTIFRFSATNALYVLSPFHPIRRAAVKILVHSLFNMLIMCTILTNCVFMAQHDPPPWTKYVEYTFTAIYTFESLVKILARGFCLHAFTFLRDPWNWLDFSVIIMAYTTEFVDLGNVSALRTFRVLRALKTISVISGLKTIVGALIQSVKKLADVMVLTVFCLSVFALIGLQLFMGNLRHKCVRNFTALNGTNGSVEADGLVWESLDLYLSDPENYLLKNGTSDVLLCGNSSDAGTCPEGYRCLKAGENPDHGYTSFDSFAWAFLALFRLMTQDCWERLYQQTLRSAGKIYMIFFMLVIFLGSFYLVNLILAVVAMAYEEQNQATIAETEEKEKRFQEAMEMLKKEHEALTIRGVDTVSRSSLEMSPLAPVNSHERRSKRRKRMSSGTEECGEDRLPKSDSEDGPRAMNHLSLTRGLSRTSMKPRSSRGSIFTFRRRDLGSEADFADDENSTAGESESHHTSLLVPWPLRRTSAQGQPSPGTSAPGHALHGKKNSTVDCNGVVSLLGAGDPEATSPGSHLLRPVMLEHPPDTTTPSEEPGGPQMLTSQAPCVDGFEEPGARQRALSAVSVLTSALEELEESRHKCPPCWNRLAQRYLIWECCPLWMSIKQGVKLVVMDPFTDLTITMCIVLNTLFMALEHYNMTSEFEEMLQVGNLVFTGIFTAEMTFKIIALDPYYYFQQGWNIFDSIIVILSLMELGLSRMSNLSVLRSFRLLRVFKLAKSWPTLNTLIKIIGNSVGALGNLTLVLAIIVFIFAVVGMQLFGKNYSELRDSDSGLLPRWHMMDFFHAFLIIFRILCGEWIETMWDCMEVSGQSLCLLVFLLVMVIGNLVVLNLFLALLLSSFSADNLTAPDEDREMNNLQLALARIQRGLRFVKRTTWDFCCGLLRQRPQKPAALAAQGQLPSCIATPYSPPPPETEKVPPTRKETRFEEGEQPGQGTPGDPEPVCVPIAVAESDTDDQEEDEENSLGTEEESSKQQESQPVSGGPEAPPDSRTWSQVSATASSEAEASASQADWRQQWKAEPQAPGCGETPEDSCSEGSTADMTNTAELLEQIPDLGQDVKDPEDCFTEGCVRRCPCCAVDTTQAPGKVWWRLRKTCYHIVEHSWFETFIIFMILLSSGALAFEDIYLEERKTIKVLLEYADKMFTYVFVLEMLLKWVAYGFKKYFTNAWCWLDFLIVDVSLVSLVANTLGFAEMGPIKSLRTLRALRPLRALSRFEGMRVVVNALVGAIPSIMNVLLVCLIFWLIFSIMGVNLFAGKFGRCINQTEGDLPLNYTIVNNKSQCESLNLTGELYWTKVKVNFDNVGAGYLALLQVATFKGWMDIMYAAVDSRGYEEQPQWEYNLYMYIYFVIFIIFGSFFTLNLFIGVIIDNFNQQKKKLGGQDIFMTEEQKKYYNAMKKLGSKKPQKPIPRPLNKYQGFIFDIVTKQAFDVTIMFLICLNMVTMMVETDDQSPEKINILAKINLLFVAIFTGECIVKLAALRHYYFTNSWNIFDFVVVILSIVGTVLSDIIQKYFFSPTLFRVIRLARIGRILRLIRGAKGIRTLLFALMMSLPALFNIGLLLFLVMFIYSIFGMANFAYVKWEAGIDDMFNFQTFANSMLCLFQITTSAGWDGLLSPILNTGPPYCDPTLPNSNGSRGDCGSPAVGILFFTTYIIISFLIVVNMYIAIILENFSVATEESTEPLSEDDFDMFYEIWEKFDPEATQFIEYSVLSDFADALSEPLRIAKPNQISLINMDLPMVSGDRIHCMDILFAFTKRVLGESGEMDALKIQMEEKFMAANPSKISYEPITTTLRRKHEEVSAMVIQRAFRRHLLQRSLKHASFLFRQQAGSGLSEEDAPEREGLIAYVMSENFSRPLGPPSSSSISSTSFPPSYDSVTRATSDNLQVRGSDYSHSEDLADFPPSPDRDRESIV
Description: (§1) Control is CNO application to cells with no M3q. Mean±SD % fluorescence change for 20 cells per group; an example photobleaching montage is inset. […] Leftwards shifts in each parameter are precluded by U73122 or by 200 μM diC8-PIP2 in the pipette but are not sensitive to staurosporine or BAPTA. The cells were perfused with an extracellular solution containing (in mM): 130 NaCl, 5 CsCl, 1.2 MgCl2, 1.5 CaCl2), 8 Glucose, 10 HEPES (pH7.4). […] nitrendipine was added to the recording solution to block Ca^2+ flux through Cav channels. Patch pipettes with a resistance of 2.5-4 MQ are filled with a solution containing (in mM): 60 CsCl, 80 CsF, 2 MgCl2, 10 EGTA, 5 Na2ATP, 5 HEPES (pH 7.4). Currents were low pass (Bessel) filtered at 9 kHz and digitized at 50 kHz and were collected from cells with a series resistance <15 MQ; this was compensated by 70%.
Results. Studies are designed to evaluate if hydrolysis of PIP2 modulates Nav1.5 channel currents in cardiomyocytes. To perform these experiments, we used human iPS cardiomyocytes (iCell^2 iPS-CMs) from Fuji-Film Cellular Dynamics. These iPS-CMs are a valuable model system for human cardiomyocytes that retain many of the key characteristics of the native cells. Here, we transfected the iPS-CMs to express the Gαq-coupled M3q Designer Receptors Exclusively Activated by Designer Drugs (DREADD) receptor. We use a magnetic transfection system from Oz Biosciences that we have previously employed with cardiomyocytes. First, we tested the efficacy of M3q to hydrolyze PIP2 in our model system. To accomplish this, we studied uncoupling of the PIP2 biosensor iRFP-PHPLCδ1 from the plasma membrane in response to chemogenic activation of M3q by 100 nM clozapine N-oxide (CNO, Tocris Biosciences).
These findings are consistent with our prior observations and the work using optogenetically activated PI-phosphatases to deplete PIP2 in HEK293 cells […] Xenopus laevis oocytes. […] Having established a time frame for PIP2 hydrolysis in our system, we used whole-cell patch-clamp to study INa in paired experiments, before and after chemogenic activation of M3q. Applying 100 nM CNO evoked a leftward shift in the current-voltage (I-V) relationship of INa such that peak INa shifted from −25 to −35 mV. At −35 mV, the peak current-density increased from −220±5 pA/pF to −266±4 pA/pF at −35 mV (n=8, P<0.001, paired Student's t-test). […] However, in contrast to our findings with Nav1.4, activating M3q signaling also left-shifted the steady state inactivation curve of Nav1.5 (V½SSI), from −81.4±2 to −89.7±2 mV (n=8, P<0.01, paired t-test; FIGS. 2C, 2D). These studies indicate that Nav1.5 channels are regulated by hydrolysis of PIP2 and that there are distinctions between PIP2 regulation of Nav1.5 and Nav1.4.
Next, we studied the effect of M3q-activation on ILATE by recording currents evoked by a 400 ms depolarizing pulse to −20 mV before and during receptor activation. The magnitude of ILATE represents the mean current 150-200 ms after peak INa and is expressed as a percentage of peak INa. […] The effects of M3q activation on V½ACT, V½SSI, and the development of ILATE were not affected by staurosporine (1 μM, 1-hour preincubation) or BAPTA (10 mM in the recording pipette), making a role for IP3 or DAG unlikely. […] Similar data were obtained for Nav1.5 expressed with Navβ1 and the M3q-DREADD receptor in HEK293T cells. This experiment validates that the findings are not restricted to a particular model system or cellular environment.
Measure modulation in INa and ILATE by endogenous Gαq signaling. Like native cardiomyocytes, human iPS-CMs express AT1 receptors. Here, the effects of Ang II (Tocris) on Nav1.5 channel function in iPS-CMs is tested using four whole-cell patch-clamp recording protocols. […]

[2] = test system: PIP2 hydrolysis (iRFP-PHPLCδ1 biosensor); test: TIRFM uncoupling of PIP2 biosensor iRFP-PHPLCδ1 from the membrane of M3q iPS-CMs; assay type: cell-based, human; conditions: 100 nM CNO
Description: as §1
Results. Studies are designed to evaluate if hydrolysis of PIP2 modulates Nav1.5 channel currents in cardiomyocytes. To perform these experiments, we used human iPS cardiomyocytes (iCell^2 iPS-CMs) from Fuji-Film Cellular Dynamics. These iPS-CMs are a valuable model system for human cardiomyocytes that retain many of the key characteristics of the native cells. Here, we transfected the iPS-CMs to express the Gαq-coupled M3q Designer Receptors Exclusively Activated by Designer Drugs (DREADD) receptor. […]

[3] = test system: Nav1.5 channel currents (INa, ILATE) in iPS-CMs; test: Whole-cell patch-clamp of INa and ILATE in iPS-CMs treated with Ang II; assay type: cell-based, human; conditions: 100 nM Ang II
Description: Control is CNO application to cells with no M3q. Mean±SD % fluorescence change for 20 cells per group; an example photobleaching montage is inset. […] The cells were perfused with an extracellular solution containing (in mM): 130 NaCl, 5 CsCl, 1.2 MgCl2, 1.5 CaCl2), 8 Glucose, 10 HEPES (pH7.4). […] nitrendipine was added to the recording solution to block Ca^2+ flux through Cav channels. Patch pipettes with a resistance of 2.5-4 MQ are filled with a solution containing (in mM): 60 CsCl, 80 CsF, 2 MgCl2, 10 EGTA, 5 Na2ATP, 5 HEPES (pH 7.4). Currents were low pass (Bessel) filtered at 9 kHz and digitized at 50 kHz and were collected from cells with a series resistance <15 MQ; this was compensated by 70%.
The data are mean±sem for 4 cells per experiment.
Measure modulation in INa and ILATE by endogenous Gαq signaling. Like native cardiomyocytes, human iPS-CMs express AT1 receptors. Here, the effects of Ang II (Tocris) on Nav1.5 channel function in iPS-CMs is tested using four whole-cell patch-clamp recording protocols. Recording solutions and amplifier settings are described in the legend of FIG. 2: • i) I-V (and G-V): The current-voltage (I-V) relationship reports on current-density across the physiological voltage range and provides a conductance voltage (G-V) relationship that is normalized and fitted with a Boltzmann function to illustrate the voltage-dependence of activation, V½ACT. • ii) SSI: a paired-pulse protocol to determine the voltage-dependence of steady-state inactivation (SSI). The prepulse is incrementally depolarized while the test-pulse remains at a fixed amplitude. […] This parameter is studied using paired steps to −30 mV and incrementally increasing the duration between the pulses. • iv) ILATE is studied using 400 ms depolarizing pulses to −20 mV. The pulse is repeated every 10 seconds for the duration of a time-course study. Subsequently, the cell is exposed to the state-dependent, late-current blocker ranolazine at 1 μM, as previously described. The magnitude of ILATE represents the mean current 150-200 ms after peak INa and is expressed as a percentage of peak INa, following ranolazine subtraction. The time course of a change in ILATE and the change in the time constant of fast inactivation are evaluated.
In each case, Nav1.5 currents is studied before and after the administration of Ang II. […] Next, we study the concentration-dependence of these effects, spanning the pathophysiological range (20-200 nM). Utilizing a non-saturating concentration of Ang II, we introduce pharmacological tools to determine the effects on Nav1.5 function attributable to PIP2 hydrolysis. […] Subsequently, we block PIP2 hydrolysis using the PLCβ inhibitor, U73122 (5 μM, Tocris Biosciences). […] We test if downstream products of PIP2 hydrolysis alter Nav1.5 currents using the PKC inhibitor staurosporine (1 μM, 1-hour preincubation, Sigma-Aldrich) and the Ca^2+ chelator, BAPTA (10 mM in the pipette, Sigma-Aldrich).

O=C(O)CN(CC(=O)O)c1ccccc1OCCOc1ccccc1N(CC(=O)O)CC(=O)O [BAPTA]
effect on CNO-evoked increase in ILATE ([1]; 100 nM CNO): not sensitive
effect on CNO-evoked leftwards shifts in V½ACT and V½SSI ([1]; 100 nM CNO): not sensitive
effect on CNO (M3q activation) effects on V½ACT, V½SSI and ILATE ([1]; 100 nM CNO): not affected; also recorded: not blocked

C[N+]1([O-])CCN(C2=Nc3cc(Cl)ccc3Nc3ccccc32)CC1 [CNO, clozapine N-oxide]
time to complete uncoupling of iRFP-PHPLCδ1 from the membrane [2]: ≤ 200 s
fold increase in ILATE ([1]; 100 nM CNO vs control): 16 fold
ILATE ([1]; 100 nM CNO, 400 ms pulse to −20 mV, control 0.22%): ~3.9 % of peak INa
peak current-density ([1]; 100 nM CNO, at −35 mV, before −220±5): −266±4 pA/pF
leftward shift in V½ACT ([1]; 100 nM CNO, paired before/after): −10±5 mV
voltage of peak INa (I-V relationship) ([1]; 100 nM CNO, before CNO −25 mV): −35 mV
V½SSI ([1]; 100 nM CNO, before −81.4±2): −89.7±2 mV

COc1ccc2c(c1)CC[C@@H]1[C@@H]2CC[C@]2(C)[C@@H](NCCCCCCN3C(=O)C=CC3=O)CC[C@@H]12 [U73122]
uncoupling of iRFP-PHPLCδ1 after M3q activation ([2]; U73122 5 μM): does not occur
effect on CNO-evoked increase in ILATE ([1]; 100 nM CNO): precluded
effect on CNO-evoked leftwards shifts in V½ACT and V½SSI ([1]; 100 nM CNO): precluded
effect on CNO (M3q activation) effects on V½ACT, V½SSI and ILATE ([1]; 100 nM CNO): blocked; also recorded: abolished

CN[C@@H]1C[C@H]2O[C@@](C)([C@@H]1OC)n1c3ccccc3c3c4c(c5c6ccccc6n2c5c31)C(=O)NC4 [staurosporine]
effect on CNO-evoked increase in ILATE ([1]; 100 nM CNO): not sensitive
effect on CNO-evoked leftwards shifts in V½ACT and V½SSI ([1]; 100 nM CNO): not sensitive
effect on CNO (M3q activation) effects on V½ACT, V½SSI and ILATE ([1]; 100 nM CNO): not affected; also recorded: not blocked

angiotensin II (DRVYIHPF; Angiotensin-2; UniProt P01019 25-32, looked up) [Ang II, agonist of the Gαq-coupled AT1 receptor (Tocris)]
leftward shift in V½ACT [3]: −7 mV
leftward shift in V½SSI [3]: −7 mV
peak INa [3]: increased; also recorded: elevated
time over which ILATE increased [3]: ~250 s
ILATE ([3]; before 0.15±0.1): 3.6±0.3 % of IPEAK
